Experimental data published in patent US20250099483A1, “THERAPEUTIC COMPOUNDS” (priority 2021, published 2025).

Legend:
Format in all cases: in vivo, human (healthy male volunteers)
[1] = Phase 1 trial Part II: plasma pharmacokinetics after repeated once-daily oral doses over 14 days; details: for Steady-state attained at day: once daily
Description: (§1) A Phase 1, randomized, double-blind, placebo-controlled clinical trial was performed to assess the safety and pharmacokinetics (PK) of Compound 1 after single, escalating, and repeated oral doses in healthy male volunteers.
(§2) The primary objective was to assess the safety of escalating repeated oral doses of Compound 1 over 14 days compared with placebo in healthy male volunteers. The secondary objective was to measure plasma pharmacokinetic (PK) parameters of Compound 1 and to assess the concentration of Compound 1 in quadriceps muscle.
(§3) 4-[(7-methoxy-2,3-dihydro-1,4-benzothiazepin-4(5H)yl)methyl]benzoic acid hemi-fumarate (Compound 1) was administered in a gastro-resistant tablet according to EXAMPLE 5. The formulation contained 20 mg, 40 mg, or 200 mg Compound 1 (based on the mass of 4-[(7-methoxy-2,3-dihydro-1,4-benzothiazepin-4(5H)yl)methyl]benzoic acid). Placebo tablet according to Example 2 was used as comparator.
In Part II, participants from groups I, J, K, and L received repeated doses of 20 mg, 60 mg, 120 mg, or 240 mg Compound 1, respectively, or corresponding placebo once daily over a period of 14 days. Forty-one subjects completed Part II: 7/7/8/7 for cohorts I, J, K, L, and twelve placebo.
In Part II, blood samples were collected from each participant as follows: Day 1:12 samples from the pre-morning dose up to 16 h (pre-dose, 0.25, 0.5, 1, 1.5, 2, 3, 4, 6, 8, 12, and 16 h), Days 2-13:12 samples at pre-doses (i.e., morning dose); Day 14:16 samples from the pre-morning dose up to 96 (D14 pre-dose, 0.25, 0.5, 1, 1.5, 2, 3, 4, 6, 8, 12, and 16 h and D15-18:1 sample before theoretical morning dosing.
(§4) The area under the plasma concentration-time curve was calculated using a combined linear and logarithmic trapezoidal rule. The interpolation was linear in the constant and ascending parts of the plasma concentration-time profiles. The interpolation was logarithmic in the descending parts.
For Part II, the same approach was used on AUC, (Day 14) respectively AUC24 (Day 1), and Cmax.
(§5) Plasma and muscle samples were analyzed by LC-MS/MS method.

[2] = Phase 1 trial: safety and tolerability of single and repeated oral doses
Description: as §1
(§6) The primary objective was to assess the safety of escalating single oral doses of Compound 1 compared with placebo in healthy male volunteers. The secondary objective was to measure plasma pharmacokinetic (PK) parameters of Compound 1.
as §2

[3] = Phase 1 trial Part II: concentration in quadriceps muscle biopsy on Day 13; details: for Total Cpd I concentration / Unbound Cpd I concentration: quadriceps muscle, Day 13, at least 3 h post dose, median (range); for Kp: geom. mean (geom. % CV)
Description: The primary objective was to assess the safety of escalating repeated oral doses of Compound 1 over 14 days compared with placebo in healthy male volunteers. The secondary objective was to measure plasma pharmacokinetic (PK) parameters of Compound 1 and to assess the concentration of Compound 1 in quadriceps muscle. For Study part II (for all groups), Concentrations of Compound 1 were determined in muscle by performing muscle biopsy on quadriceps muscle on day 13, at least 3 hours after morning dose. Plasma and muscle samples were analyzed by LC-MS/MS method. Muscle biopsy was performed to assess the concentration of Compound 1 in quadriceps muscle. The biopsy was performed on Day 13 at 3 hours post dose at least. Table 10 summarizes the ratios of unbound respective total concentration at Day 13 at 3 hours post dose divided by the plasma concentration on Day 14 at 3 hours post dose.

[4] = Phase 1 trial Part I: plasma pharmacokinetics after single ascending oral doses
Description: as §1, §6, §3
In part I, participants from groups A, B, C, D, and E received single doses of 40 mg, 80 mg, 160 mg, 240 mg, or 400 mg Compound 1, respectively, or corresponding placebo. Forty subjects completed part I: 30 active (6 per cohort) and 10 placebo.
In Part I, blood samples were collected from each participant as follows: at pre-dose, then 0.25, 0.5, 1, 1.5, 2, 3, 4, 5, 6, 8, 10, 12, 16, 24, 36, 48, 60, 72, and 96 hours after dosing.
as §4
For Part I, to assess the dose effect on the PK of Compound 1, the mean AUClast, and Cmax for each dose were calculated and were plotted by dose.
as §5

## COc1ccc2c(c1)CN(Cc1ccc(C(=O)O)cc1)CCS2.O=C(O)/C=C/C(=O)O [Compound 1, 4-[(7-methoxy-2,3-dihydro-1,4-benzothiazepin-4(5H)yl)methyl]benzoic acid hemifumarate]
[1]; 240 mg cohort
  Steady-state attained at day: 5
[1]; 20, 60, and 120 mg cohorts
  Steady-state attained at day: 4
[1]; Part II, 20, 60, 120, and 240 mg/d
  inter-individual variability (Cmax and AUC24): low
[1]; Part II, across cohorts 20-240 mg once daily
  Steady-state attained after days of daily treatment: 3 to 7 days
[1]; Part II, graphical inspections
  dose proportionality of AUCτ resp. AUC0-24 and Cmax: dose proportionality
[1]; after 14-day repeated administrations of 20, 60, 120, and 240 mg/d
  accumulation ratios for Cmax and AUC24: 1.4-1.8
[1]; male, human, plasma, after 14-days of repeated once daily oral administrations of 20 mg (so in the source), read-out: median Tmax
  Tmax: 3 to 3.5 h
[1]; single and repeat dose studies
  linearity of pharmacokinetics with time and dose: No evidence of non-linearity with the time and dose
[2]; at the doses and dose regimens tested
  tolerability: well tolerated
[2]; single doses and 14-day repeated doses tested
  serious adverse events: No serious adverse events were reported
[3]; Part II, 20-240 mg once daily
  dose proportionality of median unbound and total concentrations in quadriceps muscle: dose proportional
[3]; male, human, quadriceps muscle / plasma, oral, summary, within the dose range 20-240 mg
  Kp at 3 h: 0.04 to 0.08
[3]; 20 mg once daily (n=7)
  Total Cpd I concentration: 171 (141-341) ng/g
  Unbound Cpd I concentration: 22.0 (17.5-41.5) ng/g
[3]; 60 mg once daily (n=7)
  Total Cpd I concentration: 489 (273-693) ng/g
  Unbound Cpd I concentration: 80.3 (49.7-124) ng/g
[3]; 120 mg once daily (n=8)
  Total Cpd I concentration: 913 (614-1207) ng/g
  Unbound Cpd I concentration: 104 (63.2-196) ng/g
[3]; 240 mg once daily (n=7)
  Total Cpd I concentration: 1480 (890-1745) ng/g
  Unbound Cpd I concentration: 242 (196-452) ng/g
[3]; summary, within the dose range 20-240 mg
  Kpu: 0.008-0.01
[3]; total muscle concentration Day 13, 3 h post dose / plasma concentration Day 14, 3 h post dose, 20 mg once daily
  Kp: 0.0808 (65.3) (ng/g)/(ng/mL)
[3]; total muscle concentration Day 13 / plasma concentration Day 14, 3 h post dose, 60 mg once daily
  Kp: 0.0640 (22.6) (ng/g)/(ng/mL)
[3]; total muscle concentration Day 13 / plasma concentration Day 14, 3 h post dose, 120 mg once daily
  Kp: 0.0636 (49.9) (ng/g)/(ng/mL)
[3]; total muscle concentration Day 13 / plasma concentration Day 14, 3 h post dose, 240 mg once daily
  Kp: 0.0440 (30.0) (ng/g)/(ng/mL)
[4]; Part I, graphical inspections
  dose proportionality of AUClast and Cmax: dose proportionality
[4]; Part I, single oral doses
  inter-individual variability across treatment groups: low
  linearity of pharmacokinetics with dose: No evidence of non-linearity with the dose
[4]; after single oral administration at 20 to 400 mg, gastro-resistant tablet
  tlag: less than 2 hours
[4]; single oral administration, after a lag time consistent with the gastro-resistant tablet
  absorption: rapid absorption
